From the supplement of paper PMC5303821, “Major sulfonate transporter Soa1 in Saccharomyces cerevisiae and considerable substrate diversity in its fungal family” (Nature Communications, 2017)

Assays:
Settings in all cases: sulfur source concentration 200 µM; S. cerevisiae S288C/BY sul1Δ sul2Δ soa1Δ with transporter ortholog inserted at SOA1 locus; sulfur-free B medium, 4% glucose, pH 6.5, sole sulfur source
[1] = system: Aspergillus nidulans_XP_661711; test: maximal culture density with compound as sole sulfur source (OD600); higher = better growth
[2] = system: Aspergillus nidulans_XP_681611; test: as above
[3] = system: Metarhizium robertsii_XP_007822519; test: as above
[4] = system: Ogataea parapolymorpha_XP_013935289; test: as above
[5] = system: Fusarium oxysporum_ENH65823; test: as above
[6] = system: Saccharomyces eubayanus_SOA1; test: as above
[7] = system: Aspergillus nidulans_XP_660670; test: as above
[8] = system: Saccharomyces uvarum_SOA1; test: as above
[9] = system: Metarhizium robertsii_XP_007822519; test: lag phase before growth; higher = slower start of growth
[10] = system: Ogataea parapolymorpha_XP_013935289; test: as above
[11] = system: Saccharomyces cerevisiae_SOA1; test: as above
[12] = system: Saccharomyces eubayanus_SOA1; test: as above
[13] = system: Saccharomyces uvarum_SOA2; test: as above
[14] = system: Saccharomyces uvarum_SOA1; test: as above
[15] = system: Metarhizium robertsii_XP_007821441; test: maximal growth rate with compound as sole sulfur source (OD600 per h); higher = better growth / uptake of the sulfur source
[16] = system: Metarhizium robertsii_XP_007823832; test: as above
[17] = system: Aspergillus nidulans_CBF74694; test: as above
[18] = system: Aspergillus nidulans_XP_661711; test: as above
[19] = system: Aspergillus nidulans (IAM 2006)_astA; test: as above
[20] = system: Saccharomyces eubayanus_SOA2; test: as above
[21] = system: Aspergillus nidulans_XP_681611; test: as above
[22] = system: Metarhizium robertsii_XP_007822519; test: as above
[23] = system: Ogataea parapolymorpha_XP_013935289; test: as above
[24] = system: Aspergillus nidulans_CBF80346; test: as above
[25] = system: Saccharomyces cerevisiae_SOA1; test: as above
[26] = system: Fusarium oxysporum_ENH65823; test: as above
[27] = system: Saccharomyces eubayanus_SOA1; test: as above
[28] = system: Aspergillus nidulans_XP_660670; test: as above
[29] = system: Saccharomyces uvarum_SOA2; test: as above
[30] = system: Ogataea parapolymorpha_XP_013932458; test: as above
[31] = system: Aspergillus nidulans_XP_661733; test: as above
[32] = system: Ogataea parapolymorpha_XP_013936897; test: as above
[33] = system: Aspergillus nidulans_XP_660563; test: as above
soa1 del = test: as above
[34] = system: Saccharomyces uvarum_SOA1; test: as above

CCS(=O)(=O)O [Ethanesulfonate] showed a maximal culture density [1] of 0.209, a maximal culture density [2] of 0.319 and a maximal culture density [3] of 1.6. It also gave a maximal culture density [4] of 1.58, a maximal culture density [5] of 0.197 and a maximal culture density [6] of 1.58. For the same molecule, the maximal culture density [7] was 0.209, the maximal culture density [8] was 1.59 and the “lag phase before growth” value [9] was 7.36 h. For the same molecule, the “lag phase before growth” value [10] was 8.69 h, the “lag phase before growth” value [11] was 10.3 h and the “lag phase before growth” value [12] was 9.96 h. For the same molecule, the “lag phase before growth” value [13] was 15.6 h, the “lag phase before growth” value [14] was 9.26 h and the maximal growth rate [15] was 0.00304. It also gave a maximal growth rate [16] of 0.0141, a maximal growth rate [17] of 0.00278 and a maximal growth rate [18] of 0.00368. It also gave a maximal growth rate [19] of 0.0175, a maximal growth rate [20] of 0.0754 and a maximal growth rate [21] of 0.00641. For the same molecule, the maximal growth rate [22] was 0.0594, the maximal growth rate [23] was 0.0784 and the maximal growth rate [24] was 0.00396. It also gave a maximal growth rate [25] of 0.076, a maximal growth rate [26] of 0.00347 and a maximal growth rate [27] of 0.0681. For the same molecule, the maximal growth rate [28] was 0.0037, the maximal growth rate [29] was 0.081 and the maximal growth rate [30] was 0.00424. The maximal growth rate [31] was 0.00379, the maximal growth rate [32] was 0.00513 and the maximal growth rate [33] was 0.00579. For the same molecule, the maximal growth rate (soa1 del) was 0.00466 and the maximal growth rate [34] was 0.0735.

Work on O=S(=O)(O)CO [Hydroxymethane sulfonate] yielded a maximal culture density [1] of 0.207, a maximal culture density [2] of 0.322 and a maximal culture density [3] of 1.59. It also gave a maximal culture density [4] of 1.62, a maximal culture density [5] of 0.195 and a maximal culture density [6] of 1.59. For the same molecule, the maximal culture density [7] was 0.207, the maximal culture density [8] was 1.6 and the “lag phase before growth” value [9] was 7.86 h. For the same molecule, the “lag phase before growth” value [10] was 6.08 h, the “lag phase before growth” value [11] was 6.75 h and the “lag phase before growth” value [12] was 7.32 h. For the same molecule, the “lag phase before growth” value [13] was 11.1 h, the “lag phase before growth” value [14] was 6.88 h and the maximal growth rate [15] was 0.0032. It also gave a maximal growth rate [16] of 0.038, a maximal growth rate [17] of 0.00325 and a maximal growth rate [18] of 0.00357. For the same molecule, the maximal growth rate [19] was 0.0343, the maximal growth rate [20] was 0.0594 and the maximal growth rate [21] was 0.00603. It also gave a maximal growth rate [22] of 0.0756, a maximal growth rate [23] of 0.114 and a maximal growth rate [24] of 0.00313. It also gave a maximal growth rate [25] of 0.121, a maximal growth rate [26] of 0.00319 and a maximal growth rate [27] of 0.0972. For the same molecule, the maximal growth rate [28] was 0.00358, the maximal growth rate [29] was 0.107 and the maximal growth rate [30] was 0.00402. It also gave a maximal growth rate [31] of 0.00489, a maximal growth rate [32] of 0.00499 and a maximal growth rate [33] of 0.00603. The maximal growth rate (soa1 del) was 0.00406 and the maximal growth rate [34] was 0.109.

Work on CSCC[C@H](N)C(=O)O [Methionine] yielded a maximal culture density [1] of 1.6, a maximal culture density [2] of 1.64 and a maximal culture density [3] of 1.59. The maximal culture density [4] was 1.55, the maximal culture density [5] was 1.59 and the maximal culture density [6] was 1.55. The maximal culture density [7] was 1.6, the maximal culture density [8] was 1.57 and the “lag phase before growth” value [9] was 4.74 h. For the same molecule, the “lag phase before growth” value [10] was 4.02 h, the “lag phase before growth” value [11] was 5.45 h and the “lag phase before growth” value [12] was 3.83 h. For the same molecule, the “lag phase before growth” value [13] was 4.3 h, the “lag phase before growth” value [14] was 3.45 h and the maximal growth rate [15] was 0.137. It also gave a maximal growth rate [16] of 0.138, a maximal growth rate [17] of 0.138 and a maximal growth rate [18] of 0.139. The maximal growth rate [19] was 0.143, the maximal growth rate [20] was 0.127 and the maximal growth rate [21] was 0.142. The maximal growth rate [22] was 0.139, the maximal growth rate [23] was 0.13 and the maximal growth rate [24] was 0.139. It also gave a maximal growth rate [25] of 0.145, a maximal growth rate [26] of 0.144 and a maximal growth rate [27] of 0.129. The maximal growth rate [28] was 0.139, the maximal growth rate [29] was 0.138 and the maximal growth rate [30] was 0.131. For the same molecule, the maximal growth rate [31] was 0.136, the maximal growth rate [32] was 0.123 and the maximal growth rate [33] was 0.13. For the same molecule, the maximal growth rate (soa1 del) was 0.141 and the maximal growth rate [34] was 0.131.

CCCS(=O)(=O)O [Propanesulfonate] was tested, and the maximal culture density [1] was 0.232, the maximal culture density [2] was 0.35 and the maximal culture density [3] was 1.88. It also gave a maximal culture density [4] of 1.59, a maximal culture density [5] of 0.232 and a maximal culture density [6] of 1.56. The maximal culture density [7] was 0.231, the maximal culture density [8] was 1.56 and the “lag phase before growth” value [9] was 21.1 h. For the same molecule, the “lag phase before growth” value [10] was 10.8 h, the “lag phase before growth” value [11] was 15.7 h and the “lag phase before growth” value [12] was 11.9 h. The “lag phase before growth” value [13] was 19 h, the “lag phase before growth” value [14] was 11.1 h and the maximal growth rate [15] was 0.0026. The maximal growth rate [16] was 0.0143, the maximal growth rate [17] was 0.00267 and the maximal growth rate [18] was 0.00399. The maximal growth rate [19] was 0.0176, the maximal growth rate [20] was 0.0792 and the maximal growth rate [21] was 0.00692. The maximal growth rate [22] was 0.0162, the maximal growth rate [23] was 0.0825 and the maximal growth rate [24] was 0.00331. For the same molecule, the maximal growth rate [25] was 0.0797, the maximal growth rate [26] was 0.00365 and the maximal growth rate [27] was 0.0691. The maximal growth rate [28] was 0.00401, the maximal growth rate [29] was 0.0773 and the maximal growth rate [30] was 0.0042. The maximal growth rate [31] was 0.00555, the maximal growth rate [32] was 0.00486 and the maximal growth rate [33] was 0.00627. The maximal growth rate (soa1 del) was 0.00415 and the maximal growth rate [34] was 0.0748.
